In patent US20110288036A1, “Methods for Treating or Preventing Vascular Graft Failure” (priority 2010, published 2011):

Tests used:
PRAK = target: T1, PRAK (Homo sapiens, UniProt Q8IW41); experiment: PRAK radiometric kinase assay; format: biochemical; settings: peptide 100 μM
T1 construct: purchased Millipore (KinaseProfiler service)
Text: A commercial radiometric assay service was used to test the specificity and potency of MMI-0100 ([…]; SEQ ID NO: 1) by measuring its half maximal inhibitory concentrations (IC50). This quantitative assay measures how much MK2 inhibitor (MMI-0100; […] (SEQ ID NO: 1)) is needed to inhibit 50% of a given biological process or component of a process (i.e., an enzyme, cell, or cell receptor). Specifically, in these assays, a positively charged substrate is phosphorylated with a radiolabeled phosphate group from an ATP if the kinase is not inhibited by an inhibitor peptide. The positively charged substrate then is attracted to a negatively charged filter membrane, quantified with a scintillation counter, and compared to a 100% activity control. ATP concentrations within 15 μM of the apparent Km for ATP were chosen since an ATP concentration near the Km may allow for the kinases to have the same relative amount of phosphorylation activity. The individual conditions for each radiometric assay are as follows. […]
IC50 values for inhibitor peptides were determined using Millipore's IC50 Profiler Express service. […]

[1] = system: human smooth muscle cell (SMC); experiment: Phase contrast morphology, smooth muscle cells; format: cell-based; settings: 24 hours treatment, vs control cells
Protocol: In order to determine the effect of pharmacological doses of MMI-0100 ([…]; SEQ ID NO: 1) on human endothelial cell (EC) and smooth muscle cell (SMC) proliferation, human EC and SMC cultures were treated with three concentrations (0.25 mM, 0.5 mM, and 1 mM) of MMI-0100 ([…] (SEQ ID NO: 1)) following pre-treatment with TNF-α.

[2] = system: human saphenous vein (HSV); experiment: Human saphenous vein organ culture model of intimal hyperplasia; format: cell-based; settings: for average intimal thickness: control 81.6±17.3, pre-culture 43.7±7.8
Protocol: De-identified, discarded segments of human saphenous vein (HSV) were collected from consented patients undergoing coronary artery or peripheral vascular bypass surgeries. HSV segments were stored in a saline solution until the end of the surgical procedure, at which time they were placed in cold transplant harvest buffer (100 mM potassium lactobionate, 25 mM KH2PO4, 5 mM MgSO4, 30 mM Raffinose, 5 mM Adenosine, 3 mM Glutathione, 1 mM Allopurinol, 50 g/L Hydroxyethyl starch, pH 7.4). The vessels were used within 24 hours of harvest. Using sterile technique, HSV segments were transferred to a 60-mm Petri dish under a sterile hood. The edges (0.5 mm) of each segment were removed with a blade and excess adventitial tissue and fat removed with minimal manipulation. HSV segments were cut into consecutive rings of approximately 1.0 mm in width to be utilized for organ culture or muscle bath experiments. Two rings from each segment were immediately fixed in 10% formalin at 37° C. for 30 min to obtain pre-culture intimal thickening measurements.
After viability was determined in the muscle bath, additional rings were cut and placed in 8-well chamber slides and maintained in RPMI 1640 medium supplemented with 30% FBS, 1% L-glutamine and 1% penicillin/streptomycin for 14 days at 37° C. in an atmosphere of 5% CO2 in air. The rings were either untreated or treated with 10 μM, 50 μM or 100 μM of MMI-0100 peptide ([…] (SEQ ID NO: 1)). The culture medium with treatments was replaced every 2-3 days.
After 14 days of organ culture, vein segments were fixed in 0.5 mL of 10% formalin at 37° C. for 30 minutes and embedded in paraffin for sectioning. Beginning at the mid-portion of each ring, 5 transverse sections, spaced 5 μm apart, were cut for each specimen. Sections were then stained with Verhoeff-van Gieson stain. Each section was examined using light microscopy (Carl Zeiss, Thornwood, N.Y.) and 6 radially parallel measurements of intimal and medial thickness were randomly taken from each section ([…]). Intima was defined as tissue on the luminal side of the internal elastic lamina or the chaotic organization of the cells contained within it, whereas the medial layer was contained between the intimal layer and the external elastic lamina. Intimal and medial thickening was measured for each section at 5× magnification with the microscope's computerized image analysis system.
To this end, rings of human saphenous vein (HSV) were cultured in RPMI medium supplemented with L-glutamine (1%), penicillin/streptomycin (1%), and fetal bovine serum (FBS) (30%) at 5% CO2 and 37° C. for 14 days.
The effect of MMI-0100 ([…]; SEQ ID NO: 1) on development of intimal hyperplasia was further examined in a follow-up study in which intimal thickness of HSV in an organ culture model was measured in the presence of high serum and different concentrations (10-100 μM) of MMI-0100 ([…]; SEQ ID NO: 1). HSV were cultured for 14 days in 30% serum. All veins were deemed viable at the time of culture by adequate contraction with a phenylephrine challenge in a muscle bath. The average intimal thickness of pre-cultured vein segments was 43.7±7.8 μm. After culture, the average intimal thickness of the control was 81.6±17.3 μm. The average intimal thickness in the presence of 50 μM and 100 μM MMI-0100 ([…]; SEQ ID NO: 1) was 42.7±6.0 μm and 50.4±10.7 μm, respectively, with a significant reduction in intimal thickness (FIGS. 10A and 11).

T1 sequence (Q8IW41 whole entry, species assumed): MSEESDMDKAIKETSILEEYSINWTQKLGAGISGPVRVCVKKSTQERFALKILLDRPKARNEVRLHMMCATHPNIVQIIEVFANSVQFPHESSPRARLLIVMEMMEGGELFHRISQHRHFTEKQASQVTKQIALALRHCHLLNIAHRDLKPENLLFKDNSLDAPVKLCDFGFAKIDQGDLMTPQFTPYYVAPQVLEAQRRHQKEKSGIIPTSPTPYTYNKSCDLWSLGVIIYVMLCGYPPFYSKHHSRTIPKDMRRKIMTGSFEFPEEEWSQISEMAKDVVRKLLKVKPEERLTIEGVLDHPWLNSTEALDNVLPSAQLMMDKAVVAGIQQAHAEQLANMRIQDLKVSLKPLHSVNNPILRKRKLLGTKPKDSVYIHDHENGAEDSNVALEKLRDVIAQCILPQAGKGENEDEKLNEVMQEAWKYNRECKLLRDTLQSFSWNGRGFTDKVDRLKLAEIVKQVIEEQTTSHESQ

In the case of YARAAARQARAKALARQLGVAA [MMI-0100], the “Percent Activity, PRAK” value (PRAK) is reported as 100%, the “morphological changes of SMC” value [1] is reported as “no obvious morphological changes” and the “mean intimal thickness of HSV in culture” value ([2]; 5 μM or 10 μM, 14 days culture, in contrast to r-HSPB1) is reported as “significantly reduced the mean intimal thickness”. The mean intimal thickness ([2]; 10 μM, 14 days culture) was 14 μm, the average intimal thickness ([2]; 50 μM, 14 days, 30% serum) was 42.7±6.0 μm and the “intima:media (I:M) ratio” value ([2]; 100 μM, 14 days, 30% serum) was “greater reduction of the I:M ratio”. For the same sequence, the average intimal thickness ([2]; 100 μM, 14 days, 30% serum) was 50.4±10.7 μm.
